Literature values as cited in US8222270B2 (Medicis Pharmaceutical Corporation, priority 2008, dated 2012).

System: actinic keratoses
Conditions: cited from earlier work

Compound: O=c1[nH]cc(F)c(=O)[nH]1 [Formulation 5-FU, 5-fluorouracil]
- Sustained clearance of the total treatment field, patients (12-month follow-up): 33%
- Sustained clearance rate of initially cleared individual lesions (12-month follow-up): 54%
- Histological clearance rate (in vivo): 67%
- Initial clinical clearance, patients (in vivo): 96%
